# Values quoted from earlier work in US9278076B2, “Chronotherapeutic dosage forms” (Endo Pharmaceuticals Inc., priority 2003, dated 2016).
# Details: glucocorticoid equivalence chart
row,SMILES,Approximate Equivalent Dose
1,C[C@]12CCC(=O)C=C1CC[C@@H]1[C@@H]2C(=O)C[C@@]2(C)[C@H]1CC[C@]2(O)C(=O)CO [Cortisone],25 mg
2,C[C@]12CCC(=O)C=C1CC[C@@H]1[C@@H]2[C@@H](O)C[C@@]2(C)[C@H]1CC[C@]2(O)C(=O)CO [Hydrocortisone],20 mg
3,C[C@]12C=CC(=O)C=C1CC[C@@H]1[C@@H]2[C@@H](O)C[C@@]2(C)[C@H]1CC[C@]2(O)C(=O)CO [Prednisolone],5 mg
4,C[C@]12C=CC(=O)C=C1CC[C@H]1[C@@H]3C[C@@H](O)[C@](O)(C(=O)CO)[C@@]3(C)C[C@H](O)[C@@]12F [Triamcinolone],4 mg
